Source: US8802597B2, “Herbicidal pyrimidines” (E I du Pont de Nemours and Company, priority 2003, dated 2014)

How the values were obtained:
Assay in all cases: Test C pre/postemergence
Type in all cases: in vivo
Conditions in all cases: Postemergence
[1] = tested on: giant foxtail (Setaria faberii)
How it was run: (§1)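 We sprayed seeded pots preemergence and 2–18 cm seedlings postemergence with test chemicals in a non-phytotoxic solvent mixture including surfactant. Greenhouse plants were visually compared with untreated controls at 12 to 14 days and scored 0 (no effect) to 100 (complete control).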

[2] = tested on: Surinam grass (Brachiaria decumbens)
How it was run: as §1

[3] = tested on: johnsongrass (Sorghum halepense)
How it was run: as §1

[4] = tested on: crabgrass (Digitaria sanguinalis)
How it was run: as §1

[5] = tested on: woolly cupgrass (Eriochloa villosa)
How it was run: as §1

[6] = tested on: yellow nutsedge (Cyperus esculentus)
How it was run: as §1

[7] = tested on: velvetleaf (Abutilon theophrasti)
How it was run: as §1

kochia (Kochia scoparia) = tested on: kochia (Kochia scoparia)
How it was run: as §1

[8] = tested on: pigweed (Amaranthus retroflexus)
How it was run: as §1

[9] = tested on: cocklebur (Xanthium strumarium)
How it was run: as §1

[10] = tested on: morningglory (Ipomoea coccinea)
How it was run: as §1

[11] = 125 g ai/ha, scale 0 to 100 (0 no effect, 100 complete control)

## COC(=O)c1nc(C2CC2)nc(N)c1I [Compound 7]
[1]; Setaria faberi, post-emergence, 125 g ai/ha, scale 0 to 100 (0 no effect, 100 complete control), read-out: Foxtail, Giant plant response rating
  pest or weed control at 125 g/ha: 0%
[1]; Setaria faberi, post-emergence, 500 g ai/ha, scale 0 to 100, read-out: Plant response rating, Foxtail, Giant
  pest or weed control at 500 g/ha: 10%
[1]; Setaria faberi, post-emergence, 62 g ai/ha, scale 0 to 100 (0 no effect, 100 complete control), read-out: Foxtail, Giant plant response rating
  pest or weed control at 62 g/ha: 0%
[1]; Setaria faberi, post-emergence, 250 g ai/ha, scale 0 to 100, read-out: Plant response rating, Foxtail, Giant
  pest or weed control at 250 g/ha: 0%
[2]; Urochloa decumbens, post-emergence, 125 g ai/ha, scale 0 to 100 (0 no effect, 100 complete control), read-out: Surinam Grass plant response rating
  pest or weed control at 125 g/ha: 0%
[2]; Urochloa decumbens, post-emergence, 500 g ai/ha, scale 0 to 100, read-out: Plant response rating, Surinam Grass
  pest or weed control at 500 g/ha: 0%
[2]; Urochloa decumbens, post-emergence, 62 g ai/ha, scale 0 to 100 (0 no effect, 100 complete control), read-out: Surinam Grass plant response rating
  pest or weed control at 62 g/ha: 0%
[2]; Urochloa decumbens, post-emergence, 250 g ai/ha, scale 0 to 100, read-out: Plant response rating, Surinam Grass
  pest or weed control at 250 g/ha: 0%
[3]; Sorghum halepense, post-emergence, 62 g ai/ha, scale 0 to 100 (0 no effect, 100 complete control), read-out: Johnsongrass plant response rating
  pest or weed control at 62 g/ha: 0%
[3]; Sorghum halepense, post-emergence, 125 g ai/ha, scale 0 to 100 (0 no effect, 100 complete control), read-out: Johnsongrass plant response rating
  pest or weed control at 125 g/ha: 0%
[3]; Sorghum halepense, post-emergence, 250 g ai/ha, scale 0 to 100, read-out: Plant response rating, Johnsongrass
  pest or weed control at 250 g/ha: 0%
[3]; Sorghum halepense, post-emergence, 500 g ai/ha, scale 0 to 100, read-out: Plant response rating, Johnsongrass
  pest or weed control at 500 g/ha: 0%
[4]; Digitaria sanguinalis, post-emergence, 62 g ai/ha, scale 0 to 100 (0 no effect, 100 complete control), read-out: Crabgrass plant response rating
  pest or weed control at 62 g/ha: 0%
[4]; Digitaria sanguinalis, post-emergence, 125 g ai/ha, scale 0 to 100 (0 no effect, 100 complete control), read-out: Crabgrass plant response rating
  pest or weed control at 125 g/ha: 0%
[4]; Digitaria sanguinalis, post-emergence, 250 g ai/ha, scale 0 to 100, read-out: Plant response rating, Crabgrass
  pest or weed control at 250 g/ha: 5%
[4]; Digitaria sanguinalis, post-emergence, 500 g ai/ha, scale 0 to 100, read-out: Plant response rating, Crabgrass
  pest or weed control at 500 g/ha: 25%
[5]; Eriochloa villosa, post-emergence, 62 g ai/ha, scale 0 to 100 (0 no effect, 100 complete control), read-out: Cupgrass, Woolly plant response rating
  pest or weed control at 62 g/ha: 0%
[5]; Eriochloa villosa, post-emergence, 125 g ai/ha, scale 0 to 100 (0 no effect, 100 complete control), read-out: Cupgrass, Woolly plant response rating
  pest or weed control at 125 g/ha: 0%
[5]; Eriochloa villosa, post-emergence, 250 g ai/ha, scale 0 to 100, read-out: Plant response rating, Cupgrass, Woolly
  pest or weed control at 250 g/ha: 0%
[5]; Eriochloa villosa, post-emergence, 500 g ai/ha, scale 0 to 100, read-out: Plant response rating, Cupgrass, Woolly
  pest or weed control at 500 g/ha: 20%
[6]; Cyperus, post-emergence, 62 g ai/ha, scale 0 to 100 (0 no effect, 100 complete control), read-out: Nutsedge, Yellow plant response rating
  pest or weed control at 62 g/ha: 0%
[6]; Cyperus, post-emergence, 125 g ai/ha, scale 0 to 100 (0 no effect, 100 complete control), read-out: Nutsedge, Yellow plant response rating
  pest or weed control at 125 g/ha: 0%
[6]; Cyperus, post-emergence, 250 g ai/ha, scale 0 to 100, read-out: Plant response rating, Nutsedge, Yellow
  pest or weed control at 250 g/ha: 0%
[6]; Cyperus, post-emergence, 500 g ai/ha, scale 0 to 100, read-out: Plant response rating, Nutsedge, Yellow
  pest or weed control at 500 g/ha: 0%
[7]; Abutilon theophrasti, post-emergence, 62 g ai/ha, scale 0 to 100 (0 no effect, 100 complete control), read-out: Velvetleaf plant response rating
  pest or weed control at 62 g/ha: 0%
[7]; Abutilon theophrasti, post-emergence, 125 g ai/ha, scale 0 to 100 (0 no effect, 100 complete control), read-out: Velvetleaf plant response rating
  pest or weed control at 125 g/ha: 10%
[7]; Abutilon theophrasti, post-emergence, 250 g ai/ha, scale 0 to 100, read-out: Plant response rating, Velvetleaf
  pest or weed control at 250 g/ha: 35%
[7]; Abutilon theophrasti, post-emergence, 500 g ai/ha, scale 0 to 100, read-out: Plant response rating, Velvetleaf
  pest or weed control at 500 g/ha: 40%
Kochia (Kochia scoparia); Bassia scoparia, post-emergence, 62 g ai/ha, scale 0 to 100 (0 no effect, 100 complete control), read-out: Kochia plant response rating
  pest or weed control at 62 g/ha: 40%
Kochia (Kochia scoparia); Bassia scoparia, post-emergence, 125 g ai/ha, scale 0 to 100 (0 no effect, 100 complete control), read-out: Kochia plant response rating
  pest or weed control at 125 g/ha: 65%
Kochia (Kochia scoparia); Bassia scoparia, post-emergence, 250 g ai/ha, scale 0 to 100, read-out: Plant response rating, Kochia
  pest or weed control at 250 g/ha: 70%
Kochia (Kochia scoparia); Bassia scoparia, post-emergence, 500 g ai/ha, scale 0 to 100, read-out: Plant response rating, Kochia
  pest or weed control at 500 g/ha: 80%
[8]; Amaranthus retroflexus, post-emergence, 62 g ai/ha, scale 0 to 100 (0 no effect, 100 complete control), read-out: Pigweed plant response rating
  pest or weed control at 62 g/ha: 20%
[8]; Amaranthus retroflexus, post-emergence, 125 g ai/ha, scale 0 to 100 (0 no effect, 100 complete control), read-out: Pigweed plant response rating
  pest or weed control at 125 g/ha: 40%
[8]; Amaranthus retroflexus, post-emergence, 250 g ai/ha, scale 0 to 100, read-out: Plant response rating, Pigweed
  pest or weed control at 250 g/ha: 40%
[8]; Amaranthus retroflexus, post-emergence, 500 g ai/ha, scale 0 to 100, read-out: Plant response rating, Pigweed
  pest or weed control at 500 g/ha: 55%
[9]; Xanthium strumarium, post-emergence, 62 g ai/ha, scale 0 to 100 (0 no effect, 100 complete control), read-out: Cocklebur plant response rating
  pest or weed control at 62 g/ha: 30%
[9]; Xanthium strumarium, post-emergence, 125 g ai/ha, scale 0 to 100 (0 no effect, 100 complete control), read-out: Cocklebur plant response rating
  pest or weed control at 125 g/ha: 30%
[9]; Xanthium strumarium, post-emergence, 250 g ai/ha, scale 0 to 100, read-out: Plant response rating, Cocklebur
  pest or weed control at 250 g/ha: 30%
[9]; Xanthium strumarium, post-emergence, 500 g ai/ha, scale 0 to 100, read-out: Plant response rating, Cocklebur
  pest or weed control at 500 g/ha: 30%
[10]; Ipomoea, post-emergence, 125 g ai/ha, scale 0 to 100 (0 no effect, 100 complete control), read-out: Morningglory plant response rating
  pest or weed control at 125 g/ha: 50%
[10]; Ipomoea, post-emergence, 250 g ai/ha, scale 0 to 100, read-out: Plant response rating, Morningglory
  pest or weed control at 250 g/ha: 55%
[10]; Ipomoea, post-emergence, 500 g ai/ha, scale 0 to 100, read-out: Plant response rating, Morningglory
  pest or weed control at 500 g/ha: 65%

## CCOC(=O)c1nc(-c2ccc(I)cc2)nc(N)c1Cl [Compound 133]
[1]; 16 g ai/ha
  Plant response rating (scale of 0 to 100), Foxtail, Giant: 15
[1]; 31 g ai/ha
  Plant response rating (scale of 0 to 100), Foxtail, Giant: 60
[1]; 62 g ai/ha
  Plant response rating (scale of 0 to 100), Foxtail, Giant: 70
[1]; [11]
  Foxtail, Giant plant response rating: 75
[2]; 16 g ai/ha
  Plant response rating (scale of 0 to 100), Surinam Grass: 35
[2]; 31 g ai/ha
  Plant response rating (scale of 0 to 100), Surinam Grass: 45
[2]; 62 g ai/ha
  Plant response rating (scale of 0 to 100), Surinam Grass: 55
[2]; [11]
  Surinam Grass plant response rating: 70
[3]; 16 g ai/ha
  Plant response rating (scale of 0 to 100), Johnsongrass: 70
[3]; 31 g ai/ha
  Plant response rating (scale of 0 to 100), Johnsongrass: 85
[3]; 62 g ai/ha
  Plant response rating (scale of 0 to 100), Johnsongrass: 90
[3]; [11]
  Johnsongrass plant response rating: 95
[4]; 16 g ai/ha
  Plant response rating (scale of 0 to 100), Crabgrass: 50
[4]; 31 g ai/ha
  Plant response rating (scale of 0 to 100), Crabgrass: 75
[4]; 62 g ai/ha
  Plant response rating (scale of 0 to 100), Crabgrass: 75
[4]; [11]
  Crabgrass plant response rating: 80
[5]; 16 g ai/ha
  Plant response rating (scale of 0 to 100), Cupgrass, Woolly: 35
[5]; 31 g ai/ha
  Plant response rating (scale of 0 to 100), Cupgrass, Woolly: 50
[5]; 62 g ai/ha
  Plant response rating (scale of 0 to 100), Cupgrass, Woolly: 60
[5]; [11]
  Cupgrass, Woolly plant response rating: 70
[6]; 16 g ai/ha
  Plant response rating (scale of 0 to 100), Nutsedge, Yellow: 60
[6]; 31 g ai/ha
  Plant response rating (scale of 0 to 100), Nutsedge, Yellow: 75
[6]; 62 g ai/ha
  Plant response rating (scale of 0 to 100), Nutsedge, Yellow: 75
[6]; [11]
  Nutsedge, Yellow plant response rating: 80
[7]; 16 g ai/ha
  Plant response rating (scale of 0 to 100), Velvetleaf: 80
[7]; 31 g ai/ha
  Plant response rating (scale of 0 to 100), Velvetleaf: 85
[7]; 62 g ai/ha
  Plant response rating (scale of 0 to 100), Velvetleaf: 85
[7]; [11]
  Velvetleaf plant response rating: 95
Kochia (Kochia scoparia); 16 g ai/ha
  Plant response rating (scale of 0 to 100), Kochia: 75
Kochia (Kochia scoparia); 31 g ai/ha
  Plant response rating (scale of 0 to 100), Kochia: 80
Kochia (Kochia scoparia); 62 g ai/ha
  Plant response rating (scale of 0 to 100), Kochia: 85
Kochia (Kochia scoparia); [11]
  Kochia plant response rating: 85
[8]; 16 g ai/ha
  Plant response rating (scale of 0 to 100), Pigweed: 85
[8]; 31 g ai/ha
  Plant response rating (scale of 0 to 100), Pigweed: 85
[8]; 62 g ai/ha
  Plant response rating (scale of 0 to 100), Pigweed: 95
[8]; [11]
  Pigweed plant response rating: 100
[9]; 16 g ai/ha
  Plant response rating (scale of 0 to 100), Cocklebur: 75
[9]; 31 g ai/ha
  Plant response rating (scale of 0 to 100), Cocklebur: 85
[9]; 62 g ai/ha
  Plant response rating (scale of 0 to 100), Cocklebur: 95
[9]; [11]
  Cocklebur plant response rating: 95
[10]; 16 g ai/ha
  Plant response rating (scale of 0 to 100), Morningglory: 80
[10]; 31 g ai/ha
  Plant response rating (scale of 0 to 100), Morningglory: 90
[10]; 62 g ai/ha
  Plant response rating (scale of 0 to 100), Morningglory: 100
[10]; [11]
  Morningglory plant response rating: 100
